Values quoted from earlier work as cited in PMC11767451, “Novel Approaches to Monitor Pharmacokinetics and Metabolism of Gemcitabine-Ibandronate Conjugate in Mice and Dogs” (Molecules, 2025).

Tested on: bone-associated cancer cells
Set-up: method as in PMID 30413669
Details: cited from earlier work

CC(O)(P(=O)(O)O)P(=O)(O)OP(=O)(O)OC[C@H]1O[C@@H](n2ccc(N)nc2=O)[C@@H](O)[C@@H]1O (stereo partly drawn) [MBC-11]
bone localized effects compared to free cytarabine (clinical trials): 2–20 fold | metabolic activity of bone-associated cancer cells (in humans): significant reductions | tolerability (in humans): well tolerated
